Results taken from patent US20250179059A1 (The Regents of the University of California, priority 2021, published 2025).
Read-outs that look alike come from different tables or passages of the source.

Assays:
[1] = target: T1, human BRD4 bromodomain II (Homo sapiens, UniProt O60885); experiment: Bromodomain binding assay (AlphaScreen), BRD4 BDII
T1 construct: human BRD4 bromodomain II [based on Genbank NM_058243, residues 349-460]; host or cells: E. coli
Procedure, shortened: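 E. coli-expressed N-terminal His6-tagged human BRD4 BDII (residues 349-460) or BDI (residues 44-170) was preincubated 30 min at room temperature with compound (10-point, 3-fold) in pH 7.5 HEPES buffer, 1% DMSO. Displacement of biotinylated tetra-acetylated H4 1-21 peptide was read by AlphaScreen, and IC50 came from curve fitting.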

[2] = test system: human SKM-1 acute myeloid leukemia cells; experiment: SKM-1 antiproliferation cell-based assay (ATPlite); conditions: Homo sapiens
Procedure, shortened: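 Log-phase cells in RPMI 1640/15% FBS were seeded at 34722 cells/mL and exposed for 4 days to nine-concentration DMSO serial dilutions in triplicate. Viability was read as ATP luminescence (ATPlite 1step), and IC50 values came from variable-slope non-linear regression.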

[3] = AlphaScreen assay, Table C2, read-out: BRD4 BDII IC50
[4] = SKM-1, 96 h, SKM-1 antiproliferation assay, 4 days, Table C2
[5] = BRD4 BDII AlphaScreen assay, read-out: BRD4 BD2 IC50
[6] = SKM-1, SKM-1 antiproliferation assay

Row | IC50 [1, 3] [nM] | GI50 [2, 4] [nM] | IC50 [1, 5] [nM] | GI50 [2, 6] [nM] | SMILES
1 | 1 to 10 | 30 to 300 |  |  | Cc1ccc(-c2cc(F)cc(-c3ccc(-n4ccn(C)c4=O)c(Cl)c3)c2O)cc1N1CC(O)(CO)C1 [Example 841, 1-(3-chloro-5′-fluoro-2′-hydroxy-3″-(3-hydroxy-3-(hydroxymethyl)azetidin-1-yl)-4″-methyl-[1,1′:3′,1″-terphenyl]-4-yl)-3-methyl-1H-imidazol-2(3H)-one]
2 | 1 to 10 | 30 to 300 |  |  | Cn1ccn(-c2ccc(-c3cc(F)cc(-c4ccc(Cl)c(N5CC[C@@](C)(O)C5)c4)c3O)cc2Cl)c1=O [Example 842, (R)-1-(3,4″-dichloro-5′-fluoro-2′-hydroxy-3″-(3-hydroxy-3-methylpyrrolidin-1-yl)-[1,1′:3′,1″-terphenyl]-4-yl)-3-methyl-1H-imidazol-2(3H)-one]
3 | 0.01 to 1 | 0.3 to 30 |  |  | Cc1ncc(-c2cc(F)cc(-c3ccc(-n4ccn(C)c4=O)c(Cl)c3)c2O)cc1N1CC(C)(O)C1 [Example 843, 1-(3-chloro-5′-fluoro-2′-hydroxy-3′-(5-(3-hydroxy-3-methylazetidin-1-yl)-6-methylpyridin-3-yl)-[1,1′-biphenyl]-4-yl)-3-methyl-1H-imidazol-2(3H)-one]
4 | 1 to 10 | 0.3 to 30 |  |  | Cc1ncc(-c2cc(F)cc(-c3ccc(-n4ccn(C)c4=O)c(Cl)c3)c2O)cc1N1CCCN(C(C)(C)C)CC1 [Example 844, 1-(3′-(5-(4-(tert-butyl)-1,4-diazepan-1-yl)-6-methylpyridin-3-yl)-3-chloro-5′-fluoro-2′-hydroxy-[1,1′-biphenyl]-4-yl)-3-methyl-1H-imidazol-2(3H)-one]
5 | 1 to 10 | 30 to 300 |  |  | Cc1ccc(-c2cc(F)cc(-c3ccc(-n4ccn(C)c4=O)c(Cl)c3)c2O)cc1N1CC(C)(O)C1 [Example 845, 1-(3-chloro-5′-fluoro-2′-hydroxy-3″-(3-hydroxy-3-methylazetidin-1-yl)-4″-methyl-[1,1′:3′,1″-terphenyl]-4-yl)-3-methyl-1H-imidazol-2(3H)-one]
6 | 1 to 10 | 0.3 to 30 |  |  | COc1ncc(-c2cc(F)cc(-c3ccc(-n4ccn(C)c4=O)c(Cl)c3)c2O)cc1N1CCN(C(C)(C)C2CC2)CC1 [Example 847, 1-(3-chloro-3′-(5-(4-(2-cyclopropylpropan-2-yl)piperazin-1-yl)-6-methoxypyridin-3-yl)-5′-fluoro-2′-hydroxy-[1,1′-biphenyl]-4-yl)-3-methyl-1H-imidazol-2(3H)-one]
7 | 10 to 100 | 0.3 to 30 |  |  | CCc1ncc(-c2cc(F)cc(-c3ccc(-n4ccn(C)c4=O)c(Cl)c3)c2O)cc1N1CCN(C(C)(C)C)CC1 [Example 848, 1-(3′-(5-(4-(tert-butyl)piperazin-1-yl)-6-ethylpyridin-3-yl)-3-chloro-5′-fluoro-2′-hydroxy-[1,1′-biphenyl]-4-yl)-3-methyl-1H-imidazol-2(3H)-one]
8 |  |  | 0.01 to 1 | 30 to 300 | Cn1ccn(-c2ccc(-c3cc(F)cc(-c4cnc(C5CC5)c(N5CC(C)(O)C6(CC6)C5)c4)c3O)cc2Cl)c1=O (stereo not shown) [Example 849, 1-(3-Chloro-3′-(6-cyclopropyl-5-(7-hydroxy-7-methyl-5-azaspiro[2.4]heptan-5-yl)pyridin-3-yl)-5′-fluoro-2′-hydroxy-[1,1′-biphenyl]-4-yl)-3-methyl-1H-imidazol-2(3H)-one]
9 |  |  | 1 to 10 | 0.3 to 30 | COCC(C)(C)N1CCN(c2cc(-c3cc(F)cc(-c4ccc(-n5ccn(C)c5=O)c(Cl)c4)c3O)cnc2OC)CC1 [Example 850, 1-(3-Chloro-5′-fluoro-2′-hydroxy-3′-(6-methoxy-5-(4-(1-methoxy-2-methylpropan-2-yl)piperazin-1-yl)pyridin-3-yl)-[1,1′-biphenyl]-4-yl)-3-methyl-1H-imidazol-2(3H)-one]
10 |  |  | 1 to 10 | 30 to 300 | Cn1ccn(-c2ccc(-c3cc(F)cc(-c4cccc(N5CCCN(C(C)(C)C)CC5)c4)c3O)cc2Cl)c1=O [Example 851, 1-(3″-(4-(tert-Butyl)-1,4-diazepan-1-yl)-3-chloro-5′-fluoro-2′-hydroxy-[1,1′:3′,1″-terphenyl]-4-yl)-3-methyl-1H-imidazol-2(3H)-one]
11 |  |  | 0.01 to 1 | 0.3 to 30 | CCc1ncc(-c2cc(F)cc(-c3ccc(-n4ccn(C)c4=O)c(Cl)c3)c2O)cc1N1CC[C@@](C)(O)C1 [Example 852, (R)-1-(3-Chloro-3′-(6-ethyl-5-(3-hydroxy-3-methylpyrrolidin-1-yl)pyridin-3-yl)-5′-fluoro-2′-hydroxy-[1,1′-biphenyl]-4-yl)-3-methyl-1H-imidazol-2(3H)-one]
12 |  |  | 0.01 to 1 | 0.3 to 30 | COc1ncc(-c2cc(F)cc(-c3ccc(-n4ccn(C)c4=O)c(Cl)c3)c2O)cc1N1CCCN(C(C)(C)C)CC1 [Example 853, 1-(3′-(5-(4-(tert-Butyl)-1,4-diazepan-1-yl)-6-methoxypyridin-3-yl)-3-chloro-5′-fluoro-2′-hydroxy-[1,1′-biphenyl]-4-yl)-3-methyl-1H-imidazol-2(3H)-one]
13 |  |  | 1 to 10 | 30 to 300 | Cc1ccc(-c2cc(F)cc(-c3ccc(-n4ccn(C)c4=O)c(Cl)c3)c2O)cc1N1CC(C)(O)C2(CC2)C1 (stereo not shown) [Example 854, 1-(3-Chloro-5′-fluoro-2′-hydroxy-338-(7-hydroxy-7-methyl-5-azaspiro[2.4]heptan-5-yl)-4″-methyl-[1,1′:3′,1″-terphenyl]-4-yl)-3-methyl-1H-imidazol-2(3H)-one]
14 |  |  | 10 to 100 | 30 to 300 | Cn1ccn(-c2ccc(-c3cc(F)cc(-c4cccc(-c5ccc(N)cc5)c4)c3O)cc2Cl)c1=O [Example 855]
15 |  |  | 1 to 10 | 0.3 to 30 | COCC(C)(C)N1CCN(c2cc(-c3cc(F)cc(-c4ccc(-n5ccn(C)c5=O)c(Cl)c4)c3O)cnc2C)CC1 [Example 856]
16 |  |  | 10 to 100 | 300 to 3000 | Cn1ccn(-c2ccc(-c3cc(F)cc(-c4cccc(-c5ccc(O)cc5)c4)c3O)cc2Cl)c1=O [Example 857]
17 |  |  | 10 to 100 | 300 to 3000 | Cn1ccn(-c2ccc(-c3cc(F)cc(-c4cccc(-c5ccc(CO)cc5)c4)c3O)cc2Cl)c1=O [Example 858]

Row | IC50 [1, 3] [nM] | GI50 [2, 4] [nM] | IC50 [1, 5] [nM] | GI50 [2, 6] [nM] | SMILES
18 |  |  | 10 to 100 | 30 to 300 | COc1c(-c2cccc(N3CCN(C(C)(C)C)CC3)c2)cc(F)cc1-c1ccc(-n2ccn(C)c2=O)c(Cl)c1 [Example 859]
19 |  |  | > 100 | 0.3 to 30 | COc1ncc(-c2cc(F)cc(-c3ccc(-n4ccn(C)c4=O)c(Cl)c3)c2OC(C)=O)cc1N1CCN(C(C)C)CC1 [Example 860]
20 |  |  | 1 to 10 | 0.3 to 30 | Cn1ccn(-c2ccc(-c3cc(F)cc(-c4ccnc(N5CC(C)(O)C(F)(F)C5)c4)c3O)cc2Cl)c1=O (stereo not shown) [Example 861]
21 |  |  | 10 to 100 | 300 to 3000 | Cn1ccn(-c2ccc(-c3cc(F)cc(-c4cccc(-c5cccc(N)c5)c4)c3O)cc2Cl)c1=O [Example 862]
22 |  |  | 10 to 100 | 300 to 3000 | Cn1ccn(-c2ccc(-c3cc(F)cc(-c4cccc(-c5ccc(CN)cc5)c4)c3O)cc2Cl)c1=O [Example 863]
23 |  |  | 10 to 100 | 300 to 3000 | Cn1ccn(-c2ccc(-c3cc(F)cc(-c4cccc(-c5cccc(O)c5)c4)c3O)cc2Cl)c1=O [Example 864]
24 |  |  | 10 to 100 | 300 to 3000 | Cn1ccn(-c2ccc(-c3cc(F)cc(-c4cccc(-c5cccc(CO)c5)c4)c3O)cc2Cl)c1=O [Example 865]
25 |  |  | 10 to 100 | 300 to 3000 | Cn1ccn(-c2ccc(-c3cc(F)cc(-c4cccc(-c5cccc(CN)c5)c4)c3O)cc2Cl)c1=O [Example 866]
26 |  |  | 1 to 10 | 30 to 300 | Cn1ccn(-c2ccc(-c3cc(F)cc(-c4cccc(N5CCN(C6CCOC6)CC5)c4)c3O)cc2Cl)c1=O (stereo not shown) [Example 867]
27 |  |  | 1 to 10 | 0.3 to 30 | Cn1ccn(-c2ccc(-c3cc(F)cc(-c4cccc(N5CCN(C6CCC6)CC5)c4)c3O)cc2Cl)c1=O [Example 868]
28 |  |  | 1 to 10 | 0.3 to 30 | COc1ncc(-c2cc(F)cc(-c3ccc(-n4ccn(C)c4=O)c(Cl)c3)c2O)cc1N1CCN(C2CCOC2)CC1 (stereo not shown) [Example 869]
29 |  |  | 1 to 10 | 300 to 3000 | Cn1ccn(-c2ccc(-c3cc(F)cc(-c4ccccc4N4CCNCC4)c3O)cc2Cl)c1=O [Example 870]
30 |  |  | 1 to 10 | 30 to 300 | COc1ncc(-c2cc(F)cc(-c3ccc(-n4ccn(C)c4=O)c(Cl)c3)c2O)cc1N1CC(C)(C)[C@](C)(O)C1 [Example 871]
31 |  |  | 0.01 to 1 | 30 to 300 | COc1ncc(-c2cc(F)cc(-c3ccc(-n4ccn(C)c4=O)c(Cl)c3)c2O)cc1N1CC(C)(C)[C@@](C)(O)C1 [Example 872]
32 |  |  | 0.01 to 1 | 0.3 to 30 | Cc1ncc(-c2cc(F)cc(-c3ccc(-n4ccn(C)c4=O)c(Cl)c3)c2O)cc1N1CC2(CC2)[C@](C)(O)C1 [Example 873]
33 |  |  | 0.01 to 1 | 0.3 to 30 | COc1ncc(-c2cc(F)cc(-c3ccc(-n4ccn(C)c4=O)c(Cl)c3)c2O)cc1N1CC2(CC2)[C@](C)(O)C1 [Example 875]
34 |  |  | > 100 | 0.3 to 30 | COC(=O)Oc1c(-c2ccc(-n3ccn(C)c3=O)c(Cl)c2)cc(F)cc1-c1cnc(C)c(N2CCN(C(C)C)CC2)c1 [Example 877]

Row | SMILES | IC50 [1, 3] [nM] | GI50 [2, 4] [nM] | IC50 [1, 5] [nM] | GI50 [2, 6] [nM]
35 | CC(C)N1C2CCC1CN(c1cccc(-c3cc(F)cc(-c4ccc(-n5ccn(C)c5=O)c(Cl)c4)c3O)c1)C2 [Example 846, 1-(3-chloro-5′-fluoro-2′-hydroxy-338-(8-isopropyl-3,8-diazabicyclo[3.2.1]octan-3-yl)-[1,1′:3′,1″-terphenyl]-4-yl)-3-methyl-1H-imidazol-2(3H)-one] | 0.01 to 1 | 0.3 to 30 |  | 
